Assay results: US12371464B2, “Polypeptides and uses thereof” (MEDIMMUNE LIMITED, priority 2020, dated 2025)
Numbered stars: 1 amine (or outer) side, 2 acyl side, 3 side chain; on linkers, the order of the positions; unused ones are H or OH. Bridge positions count the residues as written; N and C are the ends. Side chains are listed from the residue outwards. Peptide text beside a SMILES is read from it. * marks the point of attachment. C20 diacid = O=C(O)CCCCCCCCCCCCCCCCCCC(=O)*; γGlu = O=C(O)[C@H](CCC(=O)[*:2])N[*:1]

How the values were obtained:
[1] = Thioflavin T fibrillation assay; assay type: physicochemical; conditions: 1 mg/mL in 25 mM sodium acetate buffer pH 4.0, 37° C., 6 days, orbital shaking; >144 h = no increase
Method in brief: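 Peptides at 1 mg/mL in 25 mM sodium acetate pH 4.0 were mixed with ThT (0.25 mM stock) and held 6 days at 37 °C with intermittent orbital shaking at 500–750 rpm. Fluorescence (ex 444/em 480 nm) was read every 30 min, with buffer baseline correction and 5 replicates. Value: mean time to a detectable fluorescence increase.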

in vivo = conditions: male, Sprague-Dawley, rat, 20 nmol/kg
Method: PK studies were performed to determine the half-life (T1/2) of test peptides. T1/2 describes the time taken for the maximum plasma concentration (Cmax) of a test substance to halve its steady-state concentration when in circulation.
The animals were 6-8 weeks old with body weights of 200-300 g on the dosing date. The animals were housed in a 12-hour light/12-hour dark cycle environment and were fasted overnight before dosing. The body weight of the animals were recorded before dosing, 24 h and 48 h post dosing.
Test articles were administered at 20 nmol/kg. Blood samples were collected from each animal via Jugular vein.
The blood samples were transferred into eppendorf low binding tube containing K2EDTA. Above 0.150 mL blood were collected at each time point. Blood samples were centrifuged at 4,000 g for 5 minutes at 4° C. to obtain plasma. The plasma samples were stored frozen at −75±15° C. until analysis.
Concentrations of the test articles in the plasma samples were analyzed using a LC-MS/MS method. […] The pharmacokinetic parameters of test articles were calculated using a non-compartmental approach with Phoenix™ WinNonlin®6.1.
The following pharmacokinetic parameters were calculated, whenever possible from the plasma concentration versus time data: • IV administration: T1/2, C0, AUClast, AUCinf, MRTinf, CI, Vss, Number of Points for Regression. • SC administration: Tmax, Cmax, AUClast, AUCinf, MRTinf, F, Number of Points for Regression.

lean rats = test: Rat acute food intake study; assay type: in vivo, Sprague Dawley rats; conditions: 20 nmol/kg subcutaneously
[2] = molecular target: T1, human calcitonin receptor (hCTR) (Homo sapiens, UniProt P30988); test: cAMP production in 1321N1 cells with stable recombinant expression of human calcitonin receptor (hCTR); assay type: cell-based; conditions: 1321N1 cells expressing human calcitonin receptor
T1 construct: expressed in transfected cells
T1 sequence (P30988 25-474): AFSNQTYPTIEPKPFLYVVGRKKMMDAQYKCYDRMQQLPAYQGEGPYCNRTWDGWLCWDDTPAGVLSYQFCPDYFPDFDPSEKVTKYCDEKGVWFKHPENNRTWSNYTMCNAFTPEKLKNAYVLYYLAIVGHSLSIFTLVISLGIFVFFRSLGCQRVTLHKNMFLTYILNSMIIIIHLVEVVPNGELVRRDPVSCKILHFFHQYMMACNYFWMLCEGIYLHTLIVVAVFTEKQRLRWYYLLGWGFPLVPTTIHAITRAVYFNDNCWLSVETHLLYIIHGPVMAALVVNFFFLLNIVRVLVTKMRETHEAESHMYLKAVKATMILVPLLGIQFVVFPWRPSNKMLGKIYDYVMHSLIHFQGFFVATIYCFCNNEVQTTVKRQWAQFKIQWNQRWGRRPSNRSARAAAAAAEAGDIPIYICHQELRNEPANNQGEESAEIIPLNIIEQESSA
Method: The functional activities of lipidated pramlintide analogue peptides, such as cAMP production, were tested in 1321N1 cell line with stable recombinant expression of human calcitonin receptor (hCTR) or human amylin receptor (calcitonin receptor co-expressed with receptor activity modifying protein, RAMP3) (hAMYR3) or HEK cells with stable recombinant expression of rat calcitonin receptor (rat CTR) or rat amylin receptor (calcitonin receptor co-expressed with receptor activity modifying protein, RAMP3) (Rat AMYR3).
Cryopreserved cell stock was thawed rapidly in a water-bath, suspended in assay buffer (0.1% BSA (Sigma #A3059) in HBSS (Sigma #H8264) with 25 mM HEPES, pH 7.4 and containing 0.5 mM IB MX (Sigma #17018)) and spun at 240×g for 5 minutes. Cells were re-suspended in assay buffer at a batch-dependent optimized concentration (e.g. hCTR cells at 0.125×10^5 cells/mL, hAMYR3 cells at 0.125×10^5 cells/mL, rat CTR cells at 1×10^5 cells/mL, rat AMYR3 at 2×10^5 cells/mL).
The test peptide stock was prepared in DMSO and diluted in assay buffer to reach stated concentrations and transferred in duplicates into a 384-black shallow well microtitre assay plate (Corning #3676). Cells were added to the assay plate, incubated at room temperature for 30 minutes and the CAMP level measured using CAMP dynamic 2 HTRF kit (Cisbio, Cat #62AM4PEJ), following the two step protocol as per manufacturer's recommendations. The plates were read on an Envision (Perkin Elmer) using excitation wavelength of 320 nm and emission wavelengths of 620 nm & 665 nm.
Data was transformed to % Delta F as described in the manufacturer's guidelines and analyzed as percent activation of maximal amylin or calcitonin effect by 4-parameter logistic fit to determine EC50 values. The selectivity of a peptide to hAMYR vs hCTR is defined as a ratio of EC50 values at the two receptors.

SMILES: CC[C@H](C)[C@H](NC(=O)[C@H](C)NC(=O)[C@@H]1CCCN1C(=O)[C@H](Cc1ccccc1)NC(=O)[C@H](CC(N)=O)NC(=O)[C@@H]1CCCN1C(=O)[C@H](CO)NC(=O)[C@H](CO)NC(=O)[C@H](Cc1c[nH]cn1)NC(=O)[C@@H](NC(=O)[C@H](CC(C)C)NC(=O)[C@H](Cc1ccccc1)NC(=O)[C@H](CC(N)=O)NC(=O)[C@H](C)NC(=O)[C@H](CC(C)C)NC(=O)[C@H](CCCNC(=N)N)NC(=O)[C@H](CCC(N)=O)NC(=O)[C@@H](NC(=O)[C@H](C)NC(=O)[C@@H]1CSSC[C@H](NC(=O)[C@@H](N)CCCCNC(=O)CC[C@H](NC(=O)CC[C@H](NC(=O)CCCCCCCCCCCCCCCCCCC(=O)O)C(=O)O)C(=O)O)C(=O)N[C@@H](CC(N)=O)C(=O)N[C@@H]([C@@H](C)O)C(=O)N[C@@H](C)C(=O)N[C@@H]([C@@H](C)O)C(=O)N1)[C@@H](C)O)C(C)C)C(=O)N[C@@H](CC(C)C)C(=O)N[C@@H](CO)C(=O)N1CCC[C@H]1C(=O)N[C@H](C(=O)N[C@@H](CC(N)=O)C(=O)N[C@H](C(=O)NCC(=O)N[C@@H](CO)C(=O)N[C@@H](CC(N)=O)C(=O)N[C@H](C(=O)N[C@@H](Cc1ccc(O)cc1)C(N)=O)[C@@H](C)O)C(C)C)[C@@H](C)O [Peptide 115] (H-K([γGlu-γGlu-C20 diacid])CNTATCATQRLANFLVHSSPNFPAILSPTNVGSNTY-NH2; disulfide 2-7; N-terminus assumed)
- Time taken to detect increase in fluorescence intensity [1]: <5 h
- half-life (in vivo; iv): 14.9 h
- half-life (in vivo; sc): 20.3 h
- Cummulative food intake (% vehicle treated intake) At 12 h (lean rats): 42.4 % vehicle treated intake
- Cummulative food intake (% vehicle treated intake) At 24 h (lean rats): 41.3 % vehicle treated intake
- Cummulative food intake (% vehicle treated intake) At 48 h (lean rats): 52.2 % vehicle treated intake
- EC50 [2]: 7.65 nM

SMILES: CC[C@H](C)[C@H](NC(=O)[C@@H]1CCCN1C(=O)CNC(=O)[C@H](Cc1ccccc1)NC(=O)[C@H](CC(N)=O)NC(=O)[C@H](CC(N)=O)NC(=O)[C@H](CO)NC(=O)[C@H](CO)NC(=O)[C@H](Cc1c[nH]cn1)NC(=O)[C@@H](NC(=O)[C@H](CC(C)C)NC(=O)[C@H](Cc1ccccc1)NC(=O)[C@H](CC(N)=O)NC(=O)[C@H](C)NC(=O)[C@H](CC(C)C)NC(=O)[C@H](CCCNC(=N)N)NC(=O)[C@H](CCC(N)=O)NC(=O)[C@@H](NC(=O)[C@H](C)NC(=O)[C@@H]1CSSC[C@H](NC(=O)[C@@H](N)CCCCNC(=O)CC[C@H](NC(=O)CC[C@H](NC(=O)CCCCCCCCCCCCCCCCCCC(=O)O)C(=O)O)C(=O)O)C(=O)N[C@@H](CC(N)=O)C(=O)N[C@@H]([C@@H](C)O)C(=O)N[C@@H](C)C(=O)N[C@@H]([C@@H](C)O)C(=O)N1)[C@@H](C)O)C(C)C)C(=O)N[C@@H](CC(C)C)C(=O)N1CCC[C@H]1C(=O)N1CCC[C@H]1C(=O)N[C@H](C(=O)N[C@@H](CC(N)=O)C(=O)N[C@H](C(=O)NCC(=O)N[C@@H](CO)C(=O)N[C@@H](CCCNC(=N)N)C(=O)N[C@H](C(=O)N[C@@H](Cc1ccc(O)cc1)C(N)=O)[C@@H](C)O)C(C)C)[C@@H](C)O [Peptide 114] (H-K([γGlu-γGlu-C20 diacid])CNTATCATQRLANFLVHSSNNFGPILPPTNVGSRTY-NH2; disulfide 2-7; N-terminus assumed)
- Time taken to detect increase in fluorescence intensity [1]: <5 h
- half-life (in vivo; iv): 13 h
- half-life (in vivo; sc): 21.6 h
- Cummulative food intake (% vehicle treated intake) At 12 h (lean rats): 42.3 % vehicle treated intake
- Cummulative food intake (% vehicle treated intake) At 24 h (lean rats): 45.1 % vehicle treated intake
- Cummulative food intake (% vehicle treated intake) At 48 h (lean rats): 53.8 % vehicle treated intake
- EC50 [2]: 15.8 nM
